# Results: patent publication US9974766B2, “Prenylated isoflavones for treatment of subjects with multidrug-resistant cancer” (Macau University of Science and Technology, priority 2015, dated 2018)
# Entries after “also recorded” stand apart in the source; their conditions may differ.
# Tests used:
# [1] = test system: MCF-7 (Breast) (Taxol sensitive); assay: MTT cytotoxicity assay, MCF-7 Taxol sensitive; format: cell-based; details: Homo sapiens, MCF7, 72 h, 3 days
# Method: (§1) Cell cultures and cytotoxicity assays have been carried out. […] Subsequently, 10 μL of MTT reagents is added to each well and incubated at 37° C. for 4 hours followed by the addition of 100 μL solubilization buffer (10% SDS in 0.01 mol/L HCl) and overnight incubation. Absorbance at 585 nm is determined from each well the next day. The percentage of cell viability is calculated using the following formula: Cell viability (%)=Cells number treated/Cells number DMSO control×100. Data are obtained from three independent experiments. The resistant factor is calculated by dividing the IC50 in resistant cells by its IC50 against drug-sensitive cells.
# [2] = test system: MCF-7 (Breast) (Taxol resistant); assay: MTT cytotoxicity assay, MCF-7 Taxol resistant; format: cell-based, human; details: for IC50: Homo sapiens, MCF7, 72 h, MTT, 3 days; for Resistant Factor: IC50 in Taxol resistant MCF-7 divided by IC50 in Taxol sensitive MCF-7
# Method: as §1
# [3] = test system: A549 (Lung) (Taxol sensitive); assay: MTT cytotoxicity assay, A549 Taxol sensitive; format: cell-based; details: Homo sapiens, A549, 72 h, 3 days
# Method: as §1
# [4] = test system: A549 (Lung) (Taxol resistant); assay: MTT cytotoxicity assay, A549 Taxol resistant; format: cell-based, human; details: for IC50: Homo sapiens, A549, 72 h, MTT, 3 days; for Resistant Factor: IC50 in Taxol resistant A549 divided by IC50 in Taxol sensitive A549
# Method: as §1
# [5] = test system: HCT-8 (Colon) (Taxol sensitive); assay: MTT cytotoxicity assay, HCT-8 Taxol sensitive; format: cell-based; details: Homo sapiens, HCT-8, 72 h, 3 days
# Method: as §1
# [6] = test system: HCT-8 (Colon) (Taxol resistant); assay: MTT cytotoxicity assay, HCT-8 Taxol resistant; format: cell-based, human; details: for IC50: Homo sapiens, HCT-8, 72 h, MTT, 3 days; for Resistant Factor: IC50 in Taxol resistant HCT-8 divided by IC50 in Taxol sensitive HCT-8
# Method: as §1
# [7] = test system: MCF-7 (Breast) (Dox sensitive); assay: MTT cytotoxicity assay, MCF-7 Dox sensitive; format: cell-based; details: Homo sapiens, MCF7, 72 h, 3 days
# Method: as §1
# [8] = test system: MCF-7 (Breast) (Dox resistant); assay: MTT cytotoxicity assay, MCF-7 Dox resistant; format: cell-based, human; details: for IC50: Homo sapiens, MCF7, 72 h, MTT, 3 days; for Resistant Factor: IC50 in Dox resistant MCF-7 divided by IC50 in Dox sensitive MCF-7
# Method: as §1
# P-glycoprotein [9] = target: P-glycoprotein (Homo sapiens, UniProt P08183); assay: Rho123 efflux assay in A549 taxol-resistant lung cancer cells; details: Example 8, 10 μM of each compound, 24 h, then Rho123 1 h
# Sequence of P-glycoprotein (Homo sapiens, UniProt P08183) (P08183 whole entry): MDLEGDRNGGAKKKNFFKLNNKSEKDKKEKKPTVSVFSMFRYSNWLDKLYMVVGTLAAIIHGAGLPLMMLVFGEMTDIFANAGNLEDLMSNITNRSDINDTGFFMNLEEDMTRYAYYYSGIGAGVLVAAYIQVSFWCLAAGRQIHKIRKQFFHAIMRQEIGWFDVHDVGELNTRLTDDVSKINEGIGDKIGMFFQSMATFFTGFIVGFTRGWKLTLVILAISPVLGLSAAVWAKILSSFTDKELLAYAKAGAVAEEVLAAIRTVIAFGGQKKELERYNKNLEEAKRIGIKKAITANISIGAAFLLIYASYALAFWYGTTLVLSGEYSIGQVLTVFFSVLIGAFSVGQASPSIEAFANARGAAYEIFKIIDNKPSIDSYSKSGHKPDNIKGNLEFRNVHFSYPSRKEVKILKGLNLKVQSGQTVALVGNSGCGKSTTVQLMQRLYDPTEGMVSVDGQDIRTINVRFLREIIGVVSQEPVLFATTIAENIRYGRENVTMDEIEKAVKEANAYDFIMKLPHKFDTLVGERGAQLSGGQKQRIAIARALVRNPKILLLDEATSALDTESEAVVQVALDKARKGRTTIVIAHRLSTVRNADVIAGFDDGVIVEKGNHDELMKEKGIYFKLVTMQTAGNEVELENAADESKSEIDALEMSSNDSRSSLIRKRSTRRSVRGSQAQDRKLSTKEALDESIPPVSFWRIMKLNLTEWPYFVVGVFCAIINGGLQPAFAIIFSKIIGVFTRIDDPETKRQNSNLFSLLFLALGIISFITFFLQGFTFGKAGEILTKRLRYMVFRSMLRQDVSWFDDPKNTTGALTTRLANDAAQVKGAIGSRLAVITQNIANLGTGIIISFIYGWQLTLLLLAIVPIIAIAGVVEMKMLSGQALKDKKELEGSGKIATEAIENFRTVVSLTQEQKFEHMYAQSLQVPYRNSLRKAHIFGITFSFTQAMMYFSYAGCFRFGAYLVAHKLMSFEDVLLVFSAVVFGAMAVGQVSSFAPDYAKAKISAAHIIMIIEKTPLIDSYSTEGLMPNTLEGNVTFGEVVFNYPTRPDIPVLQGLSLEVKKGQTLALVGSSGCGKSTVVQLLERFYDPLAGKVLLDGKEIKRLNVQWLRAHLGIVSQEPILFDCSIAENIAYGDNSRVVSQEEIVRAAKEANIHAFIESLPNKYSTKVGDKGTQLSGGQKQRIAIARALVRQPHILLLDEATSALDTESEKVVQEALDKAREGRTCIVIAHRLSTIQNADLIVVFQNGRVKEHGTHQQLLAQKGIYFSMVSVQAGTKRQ
# [10] = test system: A549 taxol-resistant lung cancer cells; assay: Annexin V/propidium iodide flow cytometry of cell death, A549 taxol-resistant; format: cell-based, human; details: 1-10 μM pomiferin with 40 μM taxol, 24 h
# Method: (§2) Cell death and viability are measured using an Annexin V staining kit (BD Biosciences, San Jose, Calif., USA). […] Cells were then harvested and analysed by multiparametric flow cytometry using FITC-Annexin V and propidium iodide staining (BD Biosciences, San Jose, Calif., USA) according to the manufacturer's instructions. Flow cytometry has been then carried out using a FACSCalibur flow cytometer (BD Biosciences, San Jose, Calif., USA). […] Data were obtained from three independent experiments.
# [11] = test system: HCT-8 taxol-resistant colon cancer cells; assay: Annexin V/propidium iodide flow cytometry of cell death, HCT-8 taxol-resistant; format: cell-based, human; details: 1-10 μM pomiferin with 40 μM taxol, 24 h
# Method: as §2
# P-glycoprotein [12] = assay: Rho123 efflux assay in MCF-7 taxol/doxorubicin-sensitive breast cancer cells; details: MCF-7 drug-sensitive cells without P-glycoprotein expression; pomiferin 5-20 μM or verapamil 10 μM, 24 h, then Rho123 1 h
smiles,measurement,setting,value
"CC(=O)O[C@H]1C(=O)[C@@]2(C)[C@H]([C@H](OC(=O)c3ccccc3)[C@]3(O)C[C@H](OC(=O)[C@H](O)[C@@H](NC(=O)c4ccccc4)c4ccccc4)C(C)=C1C3(C)C)[C@]1(OC(C)=O)CO[C@@H]1C[C@@H]2O [Taxol, paclitaxel, reference compound]",IC50,[1],< 0.001 µM
same,IC50,[2],5 µM
same,Resistant Factor,[2],5000×
same,Resistant Factor,[2]; listed as taxol,over 5000 ×
same,IC50,[3],0.0309 µM
same,IC50,[4],31.3 µM
same,Resistant Factor,[4],1012.945×
same,Resistant Factor,[4]; listed as taxol,1000 ×
same,IC50,[5],< 0.001 µM
same,IC50,[6],35.3 µM
same,Resistant Factor,[6],>35300×
same,Resistant Factor,[6]; listed as taxol,35300 ×
"COc1cccc2c1C(=O)c1c(O)c3c(c(O)c1C2=O)C[C@@](O)(C(=O)CO)C[C@@H]3O[C@H]1C[C@H](N)[C@H](O)[C@H](C)O1 [doxorubicin, reference compound]",IC50,[7],0.463 µg/mL
same,IC50,[8],10 µg/mL
same,Resistant Factor,[8],21.6 ×
"CC1(C)C=Cc2c(c3c(c4c(=O)c(-c5ccc(O)cc5)coc24)OC(C)(C)CC3)O1 [isoosajin, 3,4-dihydro-11-(4-hydroxyphenyl)-2,2,6,6-tetramethyl-2H,6H,12H-benzo[1,2-b:3,4-b′:5,6-b″]tripyran-12-one]",P-glycoprotein inhibition (Rho123 accumulation),P-glycoprotein [9],showed P-glycoprotein inhibition with a different extent; also recorded: comparable effect compared to pomiferin
"CC1(C)C=Cc2c(c3c(c4c(=O)c(-c5ccc(O)c(O)c5)coc24)OC(C)(C)CC3)O1 [isopomiferin, 7,8-dihydro-3-(3,4-dihydroxyphenyl)-6,6,10,10-tetramethyl-4H,6H,10H-benzo[1,2-b:3,4-b′:5,6-b″]tripyran-4-one]",P-glycoprotein inhibition (Rho123 accumulation),P-glycoprotein [9],showed P-glycoprotein inhibition with a different extent; also recorded: comparable effect compared to pomiferin
COc1ccc(-c2coc3c4c(c(CC=C(C)C)c(O)c3c2=O)OC(C)(C)C=C4)cc1 [osajin 4′-methyl ether],P-glycoprotein inhibition (Rho123 accumulation),P-glycoprotein [9],showed P-glycoprotein inhibition with a different extent
COc1ccc(C2COc3c4c(c(CC=C(C)C)c(OC)c3C2=O)OC(C)(C)C=C4)cc1OC (stereo not shown) [pomiferin trimethyl ether],P-glycoprotein inhibition (Rho123 accumulation),P-glycoprotein [9],showed P-glycoprotein inhibition with a different extent
"CC(C)=CCc1c2c(c3occ(-c4ccc(O)c(O)c4)c(=O)c3c1O)C=CC(C)(C)O2 [pomiferin, 3-(3,4-dihydroxyphenyl)-5-hydroxy-8,8-dimethyl-6-(3-methylbut-2-enyl)pyrano[2,3-h] chromen-4-one]",IC50,[7],35.9 µM
same,IC50,[8],15.2 µM
same,Resistant Factor,[8],0.42 ×
same,IC50,[1],35.7 µM
same,IC50,[2],27.1 µM
same,Resistant Factor,[2],0.76 ×
same,Resistant Factor,[2]; listed as Pomiferin,0.76×
same,IC50,[3],18.2 µM
same,IC50,[4],17.2 µM
same,Resistant Factor,[4],0.95 ×
same,Resistant Factor,[4]; listed as Pomiferin,0.95×
same,IC50,[5],25.5 µM
same,IC50,[6],17.6 µM
same,Resistant Factor,[6],0.69 ×
same,Resistant Factor,[6]; listed as Pomiferin,0.69×
same,effect on taxol-mediated cytotoxicity (cell death),[10],significantly enhanced the taxol-mediated cytotoxicity
same,effect on taxol-mediated cytotoxicity (cell death),[11],enhanced taxol-mediated cytotoxicity
same,Rho123 fluorescence signal / accumulation in cells,P-glycoprotein [12],no difference in fluorescence signal compared with Rho123 stained cells
